Test results: ChEMBL document CHEMBL1201862, “PubChem BioAssay data set” (2004)
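Cells were grown in 96-well plates and exposed to each compound for 48 hours at five concentrations; endpoints were interpolated linearly between bracketing concentrations, or set to the highest concentration if not reached. Abbreviation: GI50, concentration required for 50% inhibition of growth.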 The source made the active and inactive calls. Rule as the data show it: active = GI50 up to about 1.1 µM and inactive = higher.

Experiments:
Assay in all cases: growth of human tumour cells (NCI), 48 h
[1] = system: OVCAR-8
[2] = system: HOP-92
[3] = system: NCI-H460
[4] = system: RPMI-8226
[5] = system: CAKI-1
[6] = system: OVCAR-4
[7] = system: U-251
[8] = system: KM12
[9] = system: NCI/ADR-RES
[10] = system: MCF7
[11] = system: SF-539
[12] = system: UO-31
[13] = system: PC-3
[14] = system: HCC 2998
[15] = system: Hs-578T
[16] = system: K562
[17] = system: HCT-15
[18] = system: HCT-116
[19] = system: SNB-19
[20] = system: A549

Row | Compound | GI50 [1] | GI50 [2] | GI50 [3] | GI50 [4] | GI50 [5] | GI50 [6] | GI50 [7] | GI50 [8] | GI50 [9] | GI50 [10] | GI50 [11] | GI50 [12] | GI50 [13] | GI50 [14] | GI50 [15] | GI50 [16] | GI50 [17] [µM] | GI50 [18] | GI50 [19] | GI50 [20]
1 | CCOC(=O)C1=C(C)NC(C)=C(C(=O)OCC)C1c1ccc(Cl)cc1 | 16.1 µM (inactive) | 10.3 µM (inactive) | 4.6 µM (inactive) | 9.48 µM (inactive) | 16.5 µM (inactive) | 12.5 µM (inactive) | 16.8 µM (inactive) | 17.5 µM (inactive) | 17.7 µM (inactive) | 17.1 µM (inactive) | 18.8 µM (inactive) | 20.3 µM (inactive) | 14.9 µM (inactive) | 14.7 µM (inactive) | 19.6 µM (inactive) | 9.91 µM (inactive) | 16.6 | 9.14 µM (inactive) | 16.7 µM (inactive) | 15.4 µM (inactive)
2 | c1ccc2c(c1)CCN(C1=NCCO1)C2 | > 10 µM (inactive) | > 10 µM (inactive) | > 10 µM (inactive) | > 10 µM (inactive) | > 10 µM (inactive) | > 10 µM (inactive) | > 10 µM (inactive) | > 10 µM (inactive) | > 10 µM (inactive) | > 10 µM (inactive) | > 10 µM (inactive) | > 10 µM (inactive) | > 10 µM (inactive) | > 10 µM (inactive) | > 10 µM (inactive) | > 10 µM (inactive) | > 10 | > 10 µM (inactive) | > 10 µM (inactive) | > 10 µM (inactive)
3 | CC(=O)C(N1CCCCC1)C(O)(C(F)(F)F)C(F)(F)F (centres undefined) | > 100 µM (inactive) | 54.3 µM (inactive) | 89.1 µM (inactive) | 81.8 µM (inactive) | > 100 µM (inactive) | > 100 µM (inactive) | 88.9 µM (inactive) | > 100 µM (inactive) | > 100 µM (inactive) | > 100 µM (inactive) | > 100 µM (inactive) | > 100 µM (inactive) | 36.6 µM (inactive) | > 100 µM (inactive) | 41.1 µM (inactive) | 50.4 µM (inactive) | 79.3 | 58.3 µM (inactive) | > 100 µM (inactive) | > 100 µM (inactive)
4 | CC1C[C@]2(C)C(=O)Nc3ccccc3[C@@H]2Nc2ccccc21 (some centres undefined) | 14.8 µM (inactive) | 1.95 µM (inactive) | 28.1 µM (inactive) | 23.5 µM (inactive) | 20.3 µM (inactive) | 44.3 µM (inactive) | – | 17.9 µM (inactive) | 19.8 µM (inactive) | 21 µM (inactive) | 23.4 µM (inactive) | 50 µM (inactive) | 17.6 µM (inactive) | 33.7 µM (inactive) | 20 µM (inactive) | 32.9 µM (inactive) | 34.7 | 16.1 µM (inactive) | 21.8 µM (inactive) | 25.1 µM (inactive)
5 | CCN(CC)N1C(=O)[N-][N+](CC)(CC)C1=O | > 100 µM (inactive) | > 100 µM (inactive) | > 100 µM (inactive) | > 100 µM (inactive) | > 100 µM (inactive) | > 100 µM (inactive) | > 100 µM (inactive) | > 100 µM (inactive) | > 100 µM (inactive) | > 100 µM (inactive) | > 100 µM (inactive) | > 100 µM (inactive) | > 100 µM (inactive) | > 100 µM (inactive) | > 100 µM (inactive) | – | > 100 | > 100 µM (inactive) | > 100 µM (inactive) | > 100 µM (inactive)
6 | COC(=O)C1(Cc2ccc3c(c2)CCC3)Cc2cc3c(cc2C1)CCC3 | 54.2 µM (inactive) | 25.8 µM (inactive) | 35 µM (inactive) | 53 µM (inactive) | – | 32.2 µM (inactive) | 37.4 µM (inactive) | 33.2 µM (inactive) | 59.8 µM (inactive) | 22.5 µM (inactive) | > 100 µM (inactive) | 49.9 µM (inactive) | 46 µM (inactive) | 27.2 µM (inactive) | 65.6 µM (inactive) | 30.5 µM (inactive) | 31.6 | 35.1 µM (inactive) | 68.1 µM (inactive) | 28.6 µM (inactive)
7 | COc1ccc2c(c1)C1c3ccccc3CCN1CCC2 (centres undefined) | 54.5 µM (inactive) | 70.3 µM (inactive) | – | 28.8 µM (inactive) | > 100 µM (inactive) | > 100 µM (inactive) | 32.6 µM (inactive) | 29.4 µM (inactive) | 31.2 µM (inactive) | 41.1 µM (inactive) | 47.3 µM (inactive) | 26.9 µM (inactive) | 29.2 µM (inactive) | 23.4 µM (inactive) | 42.9 µM (inactive) | 33 µM (inactive) | 39.4 | 32.1 µM (inactive) | 55.2 µM (inactive) | 51.2 µM (inactive)
8 | N#C/C(=C1C=C(Br)/C(=N\O)C=C\1Cl)c1cccc2ccccc12 | 6.37 µM (inactive) | 8.57 µM (inactive) | 5.16 µM (inactive) | 5.77 µM (inactive) | 3.48 µM (inactive) | 2.49 µM (inactive) | 2.96 µM (inactive) | 3.92 µM (inactive) | 4.01 µM (inactive) | 4.93 µM (inactive) | 1.96 µM (inactive) | 11 µM (inactive) | 2.89 µM (inactive) | 5.77 µM (inactive) | 3.55 µM (inactive) | 3.51 µM (inactive) | 4.73 | 4 µM (inactive) | 10.5 µM (inactive) | 9.84 µM (inactive)
9 | CCOC(=O)CCC(NC(=O)Cc1ccc(Oc2nc3ccccc3nc2-c2cccs2)cc1)C(=O)OCC (centres undefined) | 1.82 µM (inactive) | 14 µM (inactive) | 34.4 µM (inactive) | > 100 µM (inactive) | 39.3 µM (inactive) | 13.5 µM (inactive) | 11.4 µM (inactive) | > 100 µM (inactive) | 4.95 µM (inactive) | > 100 µM (inactive) | 5.14 µM (inactive) | 22.6 µM (inactive) | 80.2 µM (inactive) | 32.2 µM (inactive) | 13.6 µM (inactive) | > 100 µM (inactive) | > 100 | 6.15 µM (inactive) | 9.29 µM (inactive) | 7.19 µM (inactive)
10 | CNC(=O)N(CCC#N)CCCN(C(=O)N(C)C)c1ccccc1 | > 100 µM (inactive) | > 100 µM (inactive) | > 100 µM (inactive) | > 100 µM (inactive) | > 100 µM (inactive) | > 100 µM (inactive) | > 100 µM (inactive) | > 100 µM (inactive) | > 100 µM (inactive) | > 100 µM (inactive) | > 100 µM (inactive) | > 100 µM (inactive) | > 100 µM (inactive) | > 100 µM (inactive) | > 100 µM (inactive) | > 100 µM (inactive) | > 100 | > 100 µM (inactive) | > 100 µM (inactive) | > 100 µM (inactive)
11 | COC1OC(Cn2c(C)nc(Br)c2Br)C(O)C(O)C1O (centres undefined) | > 100 µM (inactive) | > 100 µM (inactive) | > 100 µM (inactive) | > 100 µM (inactive) | > 100 µM (inactive) | > 100 µM (inactive) | > 100 µM (inactive) | > 100 µM (inactive) | > 100 µM (inactive) | > 100 µM (inactive) | – | > 100 µM (inactive) | > 100 µM (inactive) | > 100 µM (inactive) | > 100 µM (inactive) | > 100 µM (inactive) | > 100 | > 100 µM (inactive) | > 100 µM (inactive) | > 100 µM (inactive)
12 | Clc1ccc(Cc2nc3ccccc3nc2-c2cccc(Br)c2)cc1 | 2.92 µM (inactive) | 0.243 µM (active) | 18.3 µM (inactive) | 1.64 µM (inactive) | 2.22 µM (inactive) | 2.18 µM (inactive) | 7.41 µM (inactive) | 8.59 µM (inactive) | 3.08 µM (inactive) | 3.17 µM (inactive) | 2.26 µM (inactive) | 1.87 µM (inactive) | 1.92 µM (inactive) | 1.62 µM (inactive) | 1.69 µM (inactive) | 2.8 µM (inactive) | 1.41 | 1.88 µM (inactive) | 1.52 µM (inactive) | 17 µM (inactive)
13 | O=C1CCC(=O)N1n1c(Cc2ccc(Cl)cc2)n[nH]c1=O | > 100 µM (inactive) | > 100 µM (inactive) | > 100 µM (inactive) | > 100 µM (inactive) | > 100 µM (inactive) | > 100 µM (inactive) | > 100 µM (inactive) | > 100 µM (inactive) | > 100 µM (inactive) | > 100 µM (inactive) | > 100 µM (inactive) | > 100 µM (inactive) | > 100 µM (inactive) | > 100 µM (inactive) | > 100 µM (inactive) | > 100 µM (inactive) | > 100 | > 100 µM (inactive) | > 100 µM (inactive) | > 100 µM (inactive)
14 | CN1CC[C@]23c4c5ccc(O)c4OC2c2[nH]ncc2C[C@H]3[C@H]1C5 (some centres undefined) | > 100 µM (inactive) | > 100 µM (inactive) | > 100 µM (inactive) | > 100 µM (inactive) | > 100 µM (inactive) | > 100 µM (inactive) | > 100 µM (inactive) | > 100 µM (inactive) | > 100 µM (inactive) | > 100 µM (inactive) | – | > 100 µM (inactive) | > 100 µM (inactive) | > 100 µM (inactive) | > 100 µM (inactive) | > 100 µM (inactive) | > 100 | > 100 µM (inactive) | > 100 µM (inactive) | > 100 µM (inactive)
15 | CC(C)C[C@H](NC(=O)[C@H](Cc1cccc2ccccc12)NC(=O)N1CCOCC1)B(O)O | < 0.0128 µM (active) | < 0.01 µM (active) | < 0.012 µM (active) | < 0.01 µM (active) | < 0.0126 µM (active) | < 0.01 µM (active) | < 0.01 µM (active) | < 0.01 µM (active) | 0.149 µM (active) | < 0.0444 µM (active) | < 0.01 µM (active) | 0.0313 µM (active) | < 0.0108 µM (active) | < 0.01 µM (active) | < 0.01 µM (active) | < 0.01 µM (active) | < 0.0202 | < 0.01 µM (active) | < 0.01 µM (active) | < 0.0107 µM (active)
